How the values were obtained:
[1] = molecular target: T1, human FGFR3 wild type enzyme (cytoplasmic domain) (Homo sapiens, UniProt P22607); experiment: FGFR3 wild type mobility shift assay (enzymatic assay); format: biochemical; details: 75 μM ATP, 50 minutes at 30° C., Caliper EZ reader II
T1 construct: human FGFR3 wild type enzyme (cytoplasmic domain, from Carna Biosciences); purchased Carna Biosciences
Outline: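 Cytoplasmic domain of human wild-type FGFR3 (0.04 ng/μL) with 75 μM ATP and 1 μM FL-peptide 30, pH 7.4 HEPES/MgCl2 buffer, 1% DMSO, 50 min at 30 °C, EDTA-stopped. Substrate-product conversion read by mobility shift. IC50, pIC50 and Hill slope from 10-point 4-fold dilutions starting at 10 μM.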

[2] = molecular target: T2, human FGFR3 V555M enzyme (cytoplasmic domain carrying V555M mutation) (Homo sapiens, UniProt P22607, V555M); experiment: FGFR3 V555M mobility shift assay (enzymatic assay); format: biochemical; details: 30 μM ATP, 45 minutes at 30° C., Caliper EZ reader II
T2 construct: human FGFR3 V555M enzyme (cytoplasmic domain carrying V555M mutation, from Carna Biosciences); purchased Carna Biosciences
T2 sequence (P22607 397-806 V555M limits assumed): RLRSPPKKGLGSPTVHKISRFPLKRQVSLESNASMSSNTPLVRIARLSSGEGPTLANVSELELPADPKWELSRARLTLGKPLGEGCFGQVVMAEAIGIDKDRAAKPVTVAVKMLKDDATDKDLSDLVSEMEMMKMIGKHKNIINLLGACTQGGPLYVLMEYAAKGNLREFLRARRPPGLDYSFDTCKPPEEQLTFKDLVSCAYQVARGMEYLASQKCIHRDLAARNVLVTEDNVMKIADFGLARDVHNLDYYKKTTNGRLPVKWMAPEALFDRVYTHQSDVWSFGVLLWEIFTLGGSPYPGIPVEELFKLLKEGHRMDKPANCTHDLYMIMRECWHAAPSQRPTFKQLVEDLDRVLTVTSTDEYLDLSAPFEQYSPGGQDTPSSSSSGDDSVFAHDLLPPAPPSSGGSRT
Outline: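 Cytoplasmic-domain FGFR3 V555M (0.04 ng/μL) with 30 μM ATP and 1 μM FL-peptide 30 in HEPES pH 7.4/MgCl2/Brij35/DTT, 1% DMSO, 45 min at 30 °C, EDTA-stopped. Mobility-shift read of substrate-product conversion; 10-point 4× dilution from 10 μM fitted for IC50/pIC50.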

[3] = molecular target: T3, NIH/3T3 cells overexpressing FGFR3 WT-TACC3 fusion protein (Homo sapiens, UniProt P22607); experiment: NIH/3T3 FGFR3 WT-TACC3 cell proliferation assay; format: cell-based; details: 72-hr incubation, CellTiter Glo, starting with 10 μM; read-out: NIH/3T3 FGFR3 WT-TACC3 CTG (IC50)
T3 construct: NIH/3T3 FGFR3 WT-TACC3 CTG (IC50); other: 72-hr incubation, CellTiter Glo, starting with 10 μM; fused on or other part: Q9Y6A5 (Transforming acidic coiled-coil-containing protein 3)
T3 sequence (P22607 whole entry, change not shown, the tested form may be a part): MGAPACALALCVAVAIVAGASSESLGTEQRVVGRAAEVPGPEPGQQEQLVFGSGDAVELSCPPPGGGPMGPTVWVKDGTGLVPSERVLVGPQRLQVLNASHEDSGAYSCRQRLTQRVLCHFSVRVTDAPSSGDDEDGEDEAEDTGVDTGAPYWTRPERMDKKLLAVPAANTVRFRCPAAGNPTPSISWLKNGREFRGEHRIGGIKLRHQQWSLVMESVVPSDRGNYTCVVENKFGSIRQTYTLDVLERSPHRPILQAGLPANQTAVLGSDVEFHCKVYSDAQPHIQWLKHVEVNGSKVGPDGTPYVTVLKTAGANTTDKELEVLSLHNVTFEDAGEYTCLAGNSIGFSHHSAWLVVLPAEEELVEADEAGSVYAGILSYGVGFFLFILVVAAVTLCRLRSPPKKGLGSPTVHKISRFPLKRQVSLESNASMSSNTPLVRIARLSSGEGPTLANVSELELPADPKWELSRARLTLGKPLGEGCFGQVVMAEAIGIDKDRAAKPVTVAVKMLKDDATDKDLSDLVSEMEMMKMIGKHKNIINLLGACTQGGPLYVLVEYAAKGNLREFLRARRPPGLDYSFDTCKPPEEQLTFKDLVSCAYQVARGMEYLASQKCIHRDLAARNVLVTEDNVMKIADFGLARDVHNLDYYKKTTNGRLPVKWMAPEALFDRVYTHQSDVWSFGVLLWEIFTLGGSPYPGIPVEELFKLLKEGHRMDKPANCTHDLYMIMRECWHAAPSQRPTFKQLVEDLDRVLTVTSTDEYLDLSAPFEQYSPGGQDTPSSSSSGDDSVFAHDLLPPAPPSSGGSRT
Outline: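 Cells seeded overnight, then exposed 72 h at 37 °C to compound in 9-point 4-fold dilutions from 10 μM (0.1% DMSO final). Viability read by CellTiter-Glo luminescence, normalized to survival %; IC50, pIC50 and Hill slope from concentration-response fit.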

[4] = tested on: NIH/3T3 cells overexpressing FGFR3 WT-TACC3 fusion protein; experiment: NIH/3T3 FGFR3 WT-TACC3 cellular phospho-ERK assay (in vitro PD assay); format: cell-based; details: Mus musculus, NIH3T3; 1-hr incubation, AlphaLISA SureFire Ultra p-ERK1/2 (Thr202/Tyr204); read-out: NIH/3T3 FGFR3 WT-TACC3 pERK (IC50)
Method: NIH/3T3 FGFR3 WT-TACC3 Cellular Phospho-ERK Assay (In Vitro PD Assay)
(§1) 50 μL of cell suspension (NIH/3T3 cells overexpressing FGFR3 WT-TACC3 fusion protein) (total 10,000 cells per well in growth medium (DMEM containing 1% Glutamax, 10% FBS and 1% Pen/Strep)) was seeded in a 384-well plate. After overnight incubation at 37° C. and 5% CO2, 5.5 μL of growth medium containing 10× testing compound was added into cell cultures (10 dose points with 4× serial dilution, starting with 10 μM, 0.1% DMSO final). After 1-hr incubation at 37° C. and 5% CO2, the medium was depleted and AlphaLISA SureFire Ultra p-ERK1/2 (Thr202/Tyr204) Assay Kit (from PerkinElmer) was applied for phospho-ERK level detection according to the kit instructions. The RFUs (relative fluorescence units were measured on EnVision microplate reader (ex. 680 nm, em. 615 nm) and concentration-response curve was plotted using Prism to calculate IC50 (M), pIC50 (−log IC50) and HillSlope value.

[5] = tested on: NIH/3T3 cells overexpressing FGFR3 V555M-TACC3 fusion protein; experiment: NIH/3T3 FGFR3 V555M-TACC3 cellular phospho-ERK assay (in vitro PD assay); format: cell-based; details: Mus musculus, NIH3T3; 1-hr incubation, AlphaLISA SureFire Ultra p-ERK1/2 (Thr202/Tyr204); read-out: NIH/3T3 FGFR3 V555M-TACC3 pERK (IC50)
Method: NIH/3T3 FGFR3 V555M-TACC3 Cellular Phospho-ERK Assay (In Vitro PD Assay)
as §1, with “V555M-TACC3” for “WT-TACC3”

T1 sequence (P22607 397-806 limits assumed): as the sequence (P22607 397-806 V555M limits assumed) above, with M159V counted along it

Compound | IC50 [1] | IC50 [2] | GI50 [3] | IC50 [4] | IC50 [5]
C[C@H](Nc1c(-c2nc3ccc(N4CCOCC4)cc3[nH]2)c(=O)[nH]c2ccccc12)c1ncccn1 [Compound 2, (S)-3-(6-morpholino-1H-benzo[d]imidazol-2-yl)-4-((1-(pyrimidin-2-yl)ethyl)amino)-quinolin-2(1H)-one] | 0.337 nM | 0.213 nM | 3.61 nM | 1.24 nM | 0.946 nM
C[C@@H]1CN(c2ccc3nc(-c4c(N[C@@H](C)c5ccccn5)c5ccccc5[nH]c4=O)[nH]c3c2)C[C@H](C)O1 [Compound 4, 3-(6-((2S,6R)-2,6-dimethylmorpholino)-1H-benzo[d]imidazol-2-yl)-4-(((S)-1-(pyridin-2-yl)ethyl)amino)quinolin-2(1H)-one] | 2.59 nM | 1.34 nM | 24.8 nM | 3.87 nM | 1.09 nM
C[C@@H]1CN(c2ccc3nc(-c4c(N[C@@H](C)c5ccccn5)c5ccccc5[nH]c4=O)[nH]c3c2)C[C@@H](C)O1 [Compound 21, 3-(6-((2R,6R)-2,6-dimethylmorpholino)-1H-benzo[d]imidazol-2-yl)-4-(((S)-1-(pyridin-2-yl)ethyl)amino)quinolin-2(1H)-one] | 5.04 nM | 2.75 nM | 25 nM | 8.41 nM | 2.35 nM
C[C@H](Nc1c(-c2nc3ccc(N4CCOCC4)c(F)c3[nH]2)c(=O)[nH]c2ccccc12)c1ccccn1 [Compound 24, (S)-3-(7-fluoro-6-morpholino-1H-benzo[d]imidazol-2-yl)-4-((1-(pyridin-2-yl)ethyl)-amino)quinolin-2(1H)-one] | 2.18 nM | 0.929 nM | 20.2 nM | 13.3 nM | 0.959 nM

Source: patent US11384075B2, “Quinolinone compounds” (Janssen Pharmaceutica NV, priority 2017, dated 2022)
